In patent publication US20250163043A1 (TRANSTHERA SCIENCES (NANJING), INC., priority 2021, published 2025):

What was measured:
[1] = molecular target: CDK3/CycE1 (Homo sapiens, UniProt Q00526); test: ADP-Glo kinase assay on CDK enzymatic activity, CDK3/CycE1; assay type: biochemical; conditions: 10 concentrations from 10 μM, 4-fold, 60 min room temperature
Outline: (§1)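 Compounds were tested as 10-point, 4-fold dilutions from 10 μM final, preincubated 10 min at room temperature with kinase, then reacted 60 min with CDK tide substrate and ATP. ADP formed was detected by ADP-Glo luminescence; inhibition was normalised to 1 μM AZD4573 and 0.5% DMSO controls and IC50 fitted.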

[2] = molecular target: CDK5/p25NCK (Homo sapiens, UniProt Q00535); test: ADP-Glo kinase assay on CDK enzymatic activity, CDK5/p25NCK; assay type: biochemical; conditions: 10 concentrations from 10 μM, 4-fold, 60 min room temperature
Sequence of CDK5/p25NCK (Q00535 whole entry, species assumed): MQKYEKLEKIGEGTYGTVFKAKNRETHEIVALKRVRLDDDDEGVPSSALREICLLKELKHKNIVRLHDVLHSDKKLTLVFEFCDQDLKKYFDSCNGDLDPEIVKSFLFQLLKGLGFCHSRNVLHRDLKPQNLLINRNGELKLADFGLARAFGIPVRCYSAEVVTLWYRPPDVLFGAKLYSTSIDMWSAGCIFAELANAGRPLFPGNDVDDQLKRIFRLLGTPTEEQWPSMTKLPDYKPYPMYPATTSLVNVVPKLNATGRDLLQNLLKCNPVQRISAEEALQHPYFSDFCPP
Sequence of CDK5/p25NCK (Q15078 99-307 partner limits assumed, species assumed): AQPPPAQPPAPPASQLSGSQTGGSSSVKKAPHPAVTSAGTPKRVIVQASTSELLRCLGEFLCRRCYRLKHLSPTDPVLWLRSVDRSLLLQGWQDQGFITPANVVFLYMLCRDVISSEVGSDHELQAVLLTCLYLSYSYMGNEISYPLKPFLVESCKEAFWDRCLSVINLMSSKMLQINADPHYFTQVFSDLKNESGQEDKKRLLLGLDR
Outline: as §1

[3] = system: NCI-H929 (human myeloma cells); test: CCK-8 cell proliferation assay, NCI-H929; assay type: cell-based; conditions: 72 h incubation, 11 concentrations from 5000 nM, 3-fold
Protocol: Test samples: the compounds of the present invention, having structures shown above.
RMPI 1640, Fetal Bovine Serum (FBS), a CCK-8 method cell proliferation assay kit, DMSO (dimethyl sulfoxide), a 96-well cell culture plate, an Iscov'Modified Dulbecco's culture medium (IMDM), a multifunctional microplate reader,
MV-4-11 (human myelomonocytic leukemia cells) and NCI-H929 (human myeloma cells).
The compounds were dissolved in DMSO and diluted 3-fold in the 96-well plate to obtain stock solutions with 11 concentration gradients. Each cell was inoculated into a 96-well plate, and the diluted compound stock solution was added to the 96-well plate to obtain a series of 11 concentration gradients of compound solutions with final concentrations of 5000 nM starting and 3-fold gradient decreasing, wherein the final DMSO content was […]. There was a medium containing 1‰ DMSO in the negative control well. The treated cells were incubated at 37° C. with 5% CO2 and 95% humidity, wherein MV-4-11 were incubated for 24 h and NCI-H929 for 72 h. After incubation was completed, each well was added with 10 μL of CCK-8 reagent, incubated for 1-3 h at room temperature and placed in the microplate reader, and the absorbance was read at 450 nm.
The inhibition rate was calculated according to the following formula: […]
ODcmpd: compound absorbance; ODpositive: average value of the absorbance of positive control without compound; ODvehicle: average value of the absorbance of solvent vehicle control.
IC50 values were fitted using GraphPad 7.0 based on inhibition rates of compounds at different concentrations.

[4] = molecular target: CDK2/CycA2 (Homo sapiens, UniProt P24941); test: ADP-Glo kinase assay on CDK enzymatic activity, CDK2/CycA2; assay type: biochemical; conditions: 10 concentrations from 10 μM, 4-fold, 60 min room temperature
Outline: as §1

[5] = molecular target: T1, CDK9/CycT1 (Homo sapiens, UniProt P50750); test: ADP-Glo kinase assay on CDK enzymatic activity, CDK9/CycT1; assay type: biochemical; conditions: 10 concentrations from 10 μM, 4-fold, 60 min room temperature
T1 sequence (P50750 whole entry): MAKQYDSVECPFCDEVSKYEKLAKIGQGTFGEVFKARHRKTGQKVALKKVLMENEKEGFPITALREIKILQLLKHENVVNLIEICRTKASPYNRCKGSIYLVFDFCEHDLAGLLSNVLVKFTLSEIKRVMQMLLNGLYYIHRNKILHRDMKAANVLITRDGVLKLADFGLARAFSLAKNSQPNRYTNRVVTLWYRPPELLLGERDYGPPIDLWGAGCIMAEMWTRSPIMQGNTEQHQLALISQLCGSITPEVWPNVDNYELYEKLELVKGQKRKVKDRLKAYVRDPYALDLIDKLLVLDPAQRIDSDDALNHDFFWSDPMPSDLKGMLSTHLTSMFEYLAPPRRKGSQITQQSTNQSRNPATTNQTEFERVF
T1 sequence (O60563 whole entry partner): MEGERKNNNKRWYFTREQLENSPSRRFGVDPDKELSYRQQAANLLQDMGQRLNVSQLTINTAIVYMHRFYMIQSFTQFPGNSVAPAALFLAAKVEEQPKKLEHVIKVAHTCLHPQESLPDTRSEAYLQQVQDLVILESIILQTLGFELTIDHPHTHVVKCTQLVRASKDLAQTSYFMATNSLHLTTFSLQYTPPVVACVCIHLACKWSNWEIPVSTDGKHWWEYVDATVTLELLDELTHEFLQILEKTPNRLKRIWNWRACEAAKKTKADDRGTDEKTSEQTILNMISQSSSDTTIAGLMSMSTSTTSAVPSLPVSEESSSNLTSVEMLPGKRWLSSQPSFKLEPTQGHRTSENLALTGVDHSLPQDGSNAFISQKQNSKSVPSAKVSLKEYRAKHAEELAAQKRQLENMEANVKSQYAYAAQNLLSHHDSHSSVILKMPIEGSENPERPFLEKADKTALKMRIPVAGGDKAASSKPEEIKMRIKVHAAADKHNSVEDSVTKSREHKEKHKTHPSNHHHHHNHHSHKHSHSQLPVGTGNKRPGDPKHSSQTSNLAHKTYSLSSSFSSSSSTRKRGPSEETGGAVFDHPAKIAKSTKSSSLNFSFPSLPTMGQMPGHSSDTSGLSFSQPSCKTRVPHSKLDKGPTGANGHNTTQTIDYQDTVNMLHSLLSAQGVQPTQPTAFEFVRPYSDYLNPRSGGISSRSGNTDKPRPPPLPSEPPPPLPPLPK
Outline: as §1

[6] = molecular target: CDK1/CycE1 (Homo sapiens, UniProt P06493); test: ADP-Glo kinase assay on CDK enzymatic activity, CDK1/CycE1; assay type: biochemical; conditions: ADP-Glo; 10 concentrations from 10 μM, 4-fold; 60 min room temperature; read-out: CDK1/CycE1/nM (IC50)
Sequence of CDK1/CycE1 (P06493 whole entry, species assumed): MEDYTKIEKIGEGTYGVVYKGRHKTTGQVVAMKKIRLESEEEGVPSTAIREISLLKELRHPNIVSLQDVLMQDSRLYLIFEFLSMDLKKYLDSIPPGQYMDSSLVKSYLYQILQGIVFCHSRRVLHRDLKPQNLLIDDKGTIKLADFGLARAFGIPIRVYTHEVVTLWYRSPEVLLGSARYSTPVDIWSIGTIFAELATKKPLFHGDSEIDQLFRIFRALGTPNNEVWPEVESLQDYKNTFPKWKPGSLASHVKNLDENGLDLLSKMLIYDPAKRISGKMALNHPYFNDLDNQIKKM
Sequence of CDK1/CycE1 (P24864 whole entry partner, species assumed): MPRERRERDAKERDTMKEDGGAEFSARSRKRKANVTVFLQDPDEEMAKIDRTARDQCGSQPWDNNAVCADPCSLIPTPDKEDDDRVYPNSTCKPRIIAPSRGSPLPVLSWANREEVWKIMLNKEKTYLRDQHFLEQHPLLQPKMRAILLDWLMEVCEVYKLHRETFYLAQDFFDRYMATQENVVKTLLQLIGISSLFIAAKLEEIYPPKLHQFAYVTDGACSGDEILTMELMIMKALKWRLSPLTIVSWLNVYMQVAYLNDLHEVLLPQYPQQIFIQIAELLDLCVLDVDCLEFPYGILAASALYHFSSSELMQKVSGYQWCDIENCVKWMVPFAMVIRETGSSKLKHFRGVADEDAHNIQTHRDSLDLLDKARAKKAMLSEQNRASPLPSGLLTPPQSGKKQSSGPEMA
Outline: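 Compounds in 10-point 4-fold dilutions from 10 μM final, preincubated 10 min with kinase, then substrate/ATP added; 60 min reaction at room temperature. ADP-Glo luminescence read.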

[7] = molecular target: T1, CDK9/CycT1; test: Off-chip mobility shift assay (MSA) on CDK9/CycT1; assay type: biochemical; parameters: Full-length human CDK9 [1-372(end) amino acids of; host or cells: baculovirus expression system; conditions: 4-point concentration (0.0016, 0.008, 0.04, 0.2 uM), ATP 10 μM, reaction time 5 hours, read-out: CDK9/CycT1/nM (inhibitory activity)
Protocol: Prepare 100× concentrated Test compound stock solutions with DMSO. Then, Dilute the solution 25 times with Assay Buffer (20 mM HEPES, 0.01% Triton X-100, 2 mM DTT, pH7.5) to prepare 4× test compound solutions.
Test compounds were evaluated at 4-point concentration (0.0016, 0.008, 0.04, 0.2 uM). • 1) Mix 5 μL of 4× test compound solution with 5 μL of 4× substrate/ATP/Metal solution and 10 μL of 2× kinase solution in 384-well polypropylene plate. Incubate for 5 hours at room temperature. • 2) Add 70 μL of Termination Buffer (QuickScout Screening Assist MSA; Carna Biosciences) to stop the reaction. • 3) Separate and detect unphosphorylated/phosphorylated substrate peptides in the reactant using LabChip system (Perkin Elmer). • 4) Evaluate kinase reaction from product ratio (P/(P+S)) calculated by peak height of unphosphorylated substrate(S) and peak height of phosphorylated substrate (P).

Sequence of CDK3/CycE1 (Q00526 whole entry, species assumed): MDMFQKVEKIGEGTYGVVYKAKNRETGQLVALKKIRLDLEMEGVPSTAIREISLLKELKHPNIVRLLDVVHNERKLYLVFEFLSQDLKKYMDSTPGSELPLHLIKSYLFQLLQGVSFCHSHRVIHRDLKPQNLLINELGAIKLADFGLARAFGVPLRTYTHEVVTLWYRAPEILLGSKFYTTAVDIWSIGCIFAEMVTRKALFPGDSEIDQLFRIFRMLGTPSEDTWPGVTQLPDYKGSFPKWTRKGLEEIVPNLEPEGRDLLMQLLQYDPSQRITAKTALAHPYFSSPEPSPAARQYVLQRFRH
Sequence of CDK3/CycE1 (P24864 whole entry partner, species assumed): as the sequence (P24864 whole entry partner, species assumed) above

Compound CC(C)Nc1nc(C#N)cc2cnc(N[C@@H]3CC[C@@H](N)C3)cc12 [Compound 30, 7-(((1R,3R)-3-aminocyclopentyl)amino)-1-(isopropylamino)-2,6-naphthyridine-3-carbonitrile] has an IC50 [1] of 95 nM, an IC50 [2] of 31 nM and an IC50 [3] of 14 nM. For the same compound, the IC50 [4] was 15 nM and the IC50 [5] was 2 nM.
CC(C)Nc1nc(C#N)cc2cnc(N[C@H]3CC[C@H](N)C3)nc12 [Compound 45, 2-(((1S,3S)-3-aminocyclopentyl)amino)-8-(isopropylamino)pyrido[3,4-d]pyrimidine-6-carbonitrile] gave an IC50 [1] of 85 nM, an IC50 [2] of 153 nM and an IC50 [3] of 22 nM. For the same compound, the IC50 [6] was 114 nM, the IC50 [4] was 47 nM and the IC50 [5] was 2 nM.
CC(C)Nc1nc([C@@H](C)O)cc2cnc(NC[C@H]3CC[C@H](N)CC3)nc12 [Compound 82, (R)-1-(2-((((1r,4R)-4-aminocyclohexyl)methyl)amino)-8-(isopropylamino)pyrido[3,4-d]pyrimidin-6-yl)ethan-1-ol] showed an IC50 [7] of 63 nM.
C[C@@H](O)c1cc2cnc(N[C@H]3CC[C@H](NC(=O)CN(C)C)CC3)nc2c(NCC(C)(C)C)n1 [Compound 64, 2-(dimethylamino)-N-((1R,4r)-4-((6-((R)-1-hydroxyethyl)-8-(neopentylamino)pyrido[3,4-d]pyrimidin-2-yl)amino)cyclohexyl)acetamide] showed an IC50 [7] of 26 nM.
Compound CC(C)Nc1nc(C#N)cc2cnc(N[C@H]3CC[C@H](NC(=O)CN(C)C)CC3)nc12 [Compound 66, N-((1r,4r)-4-((6-cyano-8-(isopropylamino)pyrido[3,4-d]pyrimidin-2-yl)amino)cyclohexyl)-2-(dimethylamino)acetamide] has an IC50 [7] of 5 nM.
With CC(C)Nc1nc(C#N)cc2cnc(N[C@H]3CC[C@H](O)C3)cc12 [Compound 33, 7-(((1S,3S)-3-hydroxycyclopentyl)amino)-1-(isopropylamino)-2,6-naphthyridine-3-carbonitrile] the IC50 [1] was 9 nM, the IC50 [2] was 3 nM and the IC50 [3] was 8 nM. It also gave an IC50 [4] of 3 nM and an IC50 [5] of 1 nM.
With CC(=O)N[C@@H]1CCC[C@H](C(=O)Nc2cc3c(NC(C)C)nc(C(F)F)cc3cn2)C1 [Compound 1, (1S,3R)-3-acetamido-N-(7-(difluoromethyl)-5-(isopropylamino)-2,6-naphthyridin-3-yl)cyclohexane-1-carboxamide] the IC50 [7] was 7 nM.
In the case of CC(C)Nc1nc(C#N)cc2cnc(N[C@H]3CC[C@H](O)CC3)nc12 [Compound 94, 2-(((1r,4r)-4-hydroxycyclohexyl)amino)-8-(isopropylamino)pyrido[3,4-d]pyrimidine-6-carbonitrile], the IC50 [7] is reported as 4 nM.
With CC(C)Nc1nc([C@@H](C)O)cc2cnc(N[C@H]3CC[C@H](O)CC3)nc12 [Compound 75, (1R,4r)-4-((6-((R)-1-hydroxyethyl)-8-(isopropylamino)pyrido[3,4-d]pyrimidin-2-yl)amino)cyclohexan-1-ol] the IC50 [7] was 36 nM.
CC(=O)N1CCC(CNc2ncc3cc([C@@H](C)O)nc(NC(C)C)c3n2)CC1 [Compound 69, (R)-1-(4-(((6-(1-hydroxyethyl)-8-(isopropylamino)pyrido[3,4-d]pyrimidin-2-yl)amino)methyl)piperidin-1-yl)ethan-1-one] was tested, and the IC50 [7] was 81 nM.
Cc1cc2cnc(N[C@H]3CC[C@H](O)CC3)nc2c(NC(C)C)n1 [Compound 92, (1r,4r)-4-((8-(isopropylamino)-6-methylpyrido[3,4-d]pyrimidin-2-yl)amino)cyclohexan-1-ol] showed an IC50 [7] of 64 nM.
CC(C)Nc1nc([C@@H](C)O)cc2cnc(N[C@H]3CC[C@H](N4CCN(C)CC4)CC3)nc12 [Compound 67, (R)-1-(8-(isopropylamino)-2-(((1r,4R)-4-(4-methylpiperazin-1-yl)cyclohexyl)amino)pyrido[3,4-d]pyrimidin-6-yl)ethan-1-ol] was tested, and the IC50 [7] was 10 nM.
CC(C)Nc1nc(C(F)F)cc2cnc(N[C@H]3CC[C@H](N)C3)cc12 [Compound 52, N^7-((1S,3S)-3-aminocyclopentyl)-3-(difluoromethyl)-N^1-isopropyl-2,6-naphthyridine-1,7-diamine] gave an IC50 [1] of 23 nM, an IC50 [2] of 16 nM and an IC50 [3] of 9 nM. For the same compound, the IC50 [4] was 12 nM and the IC50 [5] was 1 nM.
CC(C)Nc1nc([C@@H](C)O)cc2cnc(N[C@H]3CC[C@H](N)CC3)nc12 [Compound 76, (R)-1-(2-(((1r,4R)-4-aminocyclohexyl)amino)-8-(isopropylamino)pyrido[3,4-d]pyrimidin-6-yl)ethan-1-ol] was tested, and the IC50 [7] was 10 nM.
CC(C)Nc1nc(C(F)F)cc2cnc(N[C@H]3CC[C@H](O)CC3)nc12 [Compound 91, (1r,4r)-4-((6-(difluoromethyl)-8-(isopropylamino)pyrido[3,4-d]pyrimidin-2-yl)amino)cyclohexan-1-ol] was tested, and the IC50 [7] was 6 nM.
CC(=O)N[C@@H]1CCC[C@H](C(=O)Nc2cc3c(NC(C)C)nc([C@@H](C)O)cc3cn2)C1 [Compound 98, (1S,3R)-3-acetamido-N-(7-((R)-1-hydroxyethyl)-5-(isopropylamino)-2,6-naphthyridin-3-yl)cyclohexane-1-carboxamide] gave an IC50 [7] of 28 nM.
Work on CNC(=O)[C@H]1CC[C@@H](Nc2ncc3cc([C@@H](C)O)nc(NC(C)C)c3n2)C1 [Compound 79, (1S,3R)-3-((6-((R)-1-hydroxyethyl)-8-(isopropylamino)pyrido[3,4-d]pyrimidin-2-yl)amino)-N-methylcyclopentane-1-carboxamide] yielded an IC50 [7] of 23 nM.
CC(C)Nc1nc([C@@H](C)O)cc2cnc(NCC3CCN(S(C)(=O)=O)CC3)nc12 [Compound 68, (R)-1-(8-(isopropylamino)-2-(((1-(methylsulfonyl)piperidin-4-yl)methyl)amino)pyrido[3,4-d]pyrimidin-6-yl)ethan-1-ol] showed an IC50 [7] of 82 nM.
CC(=O)c1cc2cnc(N[C@H]3CC[C@H](O)CC3)nc2c(NC(C)C)n1 [Compound 88, 1-(2-(((1r,4r)-4-hydroxycyclohexyl)amino)-8-(isopropylamino)pyrido[3,4-d]pyrimidin-6-yl)ethan-1-one] was tested, and the IC50 [7] was 44 nM.
CC(C)Nc1nc(C2COC2)cc2cnc(N[C@H]3CC[C@H](O)CC3)nc12 [Compound 95, (1r,4r)-4-((8-(isopropylamino)-6-(oxetan-3-yl)pyrido[3,4-d]pyrimidin-2-yl)amino)cyclohexan-1-ol] was tested, and the IC50 [7] was 34 nM.
For CC(C)Nc1nccc2cnc(N[C@H]3CC[C@H](O)CC3)nc12 [Compound 89, (1r,4r)-4-((8-(isopropylamino)pyrido[3,4-d]pyrimidin-2-yl)amino)cyclohexan-1-ol], the IC50 [7] was 24 nM.
With CC(C)Nc1nc([C@@H](C)O)cc2cnc(NC3CC[C@H](C(=O)O)C3)nc12 (stereo in doubt) [Compound 77, (1S,3R)-3-((6-((R)-1-hydroxyethyl)-8-(isopropylamino)pyrido[3,4-d]pyrimidin-2-yl)amino)cyclopentane-1-carboxylic acid] the IC50 [7] was 85 nM.
Compound CC(C)Nc1nc([C@@H](C)O)cc2cnc(N[C@H]3CC[C@H](NC4COC4)CC3)nc12 [Compound 80, (R)-1-(8-(isopropylamino)-2-(((1r,4R)-4-(oxetan-3-ylamino)cyclohexyl)amino)pyrido[3,4-d]pyrimidin-6-yl)ethan-1-ol] has an IC50 [7] of 12 nM.
